The supplement of paper PMC4862054

Tests used:
Assay in all cases: normalised viability (% of control), CellTiter-Blue; higher = more viable cells (about 100 = DMSO control)
Conditions in all cases: incubation time: 72 h
[1] = test system: SK-BR-3
Procedure, shortened: (§1)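 Plates were quality-checked by Z'-factor and normalised to vehicle (100) and a positive kill control (0). The underlying assay incubated breast cancer cell lines for 72 h on 384-well plates with compound, then added 2.5 µl CellTiter-Blue for 2 h at 37 °C and read at 560/590 nm. The value is normalised viability at a single listed concentration of the series.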

[2] = test system: HCC1937
Procedure, shortened: as §1

[3] = test system: MFM-223
Procedure, shortened: as §1

[4] = test system: MDA-MB-436
Procedure, shortened: as §1

[5] = test system: MDA-MB-453
Procedure, shortened: as §1

[6] = test system: HDQ-P1
Procedure, shortened: as §1

SMILES	normalised viability ([1]; 10 nM) [%]	normalised viability ([1]; 1000 nM) [%]	normalised viability ([1]; 10000 nM) [%]	normalised viability ([2]; 10 nM) [%]	normalised viability ([2]; 1000 nM) [%]	normalised viability ([2]; 10000 nM) [%]	normalised viability ([3]; 10 nM) [%]	normalised viability ([3]; 1000 nM) [%]	normalised viability ([3]; 10000 nM) [%]	normalised viability ([4]; 10 nM) [%]	normalised viability ([4]; 1000 nM) [%]	normalised viability ([4]; 10000 nM) [%]	normalised viability ([5]; 3 nM) [%]	normalised viability ([5]; 30 nM) [%]	normalised viability ([5]; 100 nM) [%]	normalised viability ([6]; 3 nM) [%]	normalised viability ([6]; 30 nM) [%]	normalised viability ([6]; 100 nM) [%]	normalised viability ([1]; 1 nM) [%]	normalised viability ([1]; 100 nM) [%]	normalised viability ([2]; 1 nM) [%]	normalised viability ([2]; 100 nM) [%]	normalised viability ([3]; 1 nM) [%]	normalised viability ([3]; 100 nM) [%]	normalised viability ([4]; 1 nM) [%]	normalised viability ([4]; 100 nM) [%]	normalised viability ([5]; 0.3 nM) [%]	normalised viability ([5]; 10 nM) [%]	normalised viability ([6]; 0.3 nM) [%]	normalised viability ([6]; 10 nM) [%]
Cn1c(CCCC(=O)O)nc2cc(N(CCCl)CCCl)ccc21 [Bendamustine]	108	109	85	55.3	85.7	93.7	96.2	87.4	93.5	94.7	70.4	116	125	108	106	105	119	109	–	–	–	–	–	–	–	–	–	–	–	–
COc1cc2nccc(Oc3ccc(NC(=O)C4(C(=O)Nc5ccc(F)cc5)CC4)cc3)c2cc1OC [Cabozantinib]	–	109	–	–	100	–	–	53.7	–	–	97.3	–	96.9	–	–	93.7	–	–	115	110	98	87.5	88.5	84	110	102	111	108	97.7	112
O=C1CCC(N2C(=O)c3ccccc3C2=O)C(=O)N1 (stereo unspecified) [Thalidomide]	97.9	112	109	85.8	73.4	77.9	103	96.6	91.4	106	87	96.8	99	99.3	89.7	107	101	103	–	–	–	–	–	–	–	–	–	–	–	–
C=C(c1ccc(C(=O)O)cc1)c1cc2c(cc1C)C(C)(C)CCC2(C)C [Bexarotene]	100	89.8	83.1	82.3	82.2	82.1	101	103	96.5	90.1	97.2	81	91	91.3	74.5	89.3	84.9	102	–	–	–	–	–	–	–	–	–	–	–	–
CCC1(c2ccc(N)cc2)CCC(=O)NC1=O (stereo unspecified) [Aminoglutethimide]	99.1	100	109	93.3	92.9	83.4	97	102	97.5	95.9	112	91.6	94.9	93	89.2	84.8	99.2	103	–	–	–	–	–	–	–	–	–	–	–	–
Clc1ccc(Nc2nnc(Cc3ccncc3)c3ccccc23)cc1 [Vatalanib]	95.2	101	86.9	75	95.7	91.9	99.5	99.8	111	106	97.5	85.2	107	112	112	105	102	108	–	–	–	–	–	–	–	–	–	–	–	–
NCC(=O)CCC(=O)O [Aminolevulinic acid]	96.3	108	101	86.8	84.2	86.4	92.2	91.3	87.3	99.1	102	96.5	110	93.5	90.2	95.2	105	110	–	–	–	–	–	–	–	–	–	–	–	–
